Measured values: paper PMC9280334 (Frontiers in Chemistry, 2022)

What was measured:
[1] = target: T1, AChE (electric eel) (Electrophorus electricus, UniProt O42275); experiment: biochemical; format: biochemical; conditions: electric eel AChE; mean ± SEM of three experiments
T1 construct: purchased Sigma-Aldrich
Procedure: (§1) AChE, BuChE, 5,5'-dithiobis (2-nitrobenzoic acid) (DTNB), acetyl- and butyrylthiocholine iodides were purchased from Sigma-Aldrich. Five different concentrations of the corresponding compounds in ethanol-DMSO (9:1) were prepared. […] After 3 min of incubation, the substrate solution (acetylthiocholine iodide or butyrylthiocholine iodide, 0.05 M) was added and then incubated for at least 1 min at 25°C. […] The inhibition curve was obtained by plotting the percentage of enzyme activity (100% for the reference) versus the logarithm of the tested compound concentration. […]

[2] = target: T2, BuChE (equine serum) (Equus caballus, UniProt P81908); experiment: biochemical; format: biochemical; conditions: equine serum BuChE; mean ± SEM of three experiments
T2 construct: purchased Sigma-Aldrich
T2 sequence (P81908 whole entry): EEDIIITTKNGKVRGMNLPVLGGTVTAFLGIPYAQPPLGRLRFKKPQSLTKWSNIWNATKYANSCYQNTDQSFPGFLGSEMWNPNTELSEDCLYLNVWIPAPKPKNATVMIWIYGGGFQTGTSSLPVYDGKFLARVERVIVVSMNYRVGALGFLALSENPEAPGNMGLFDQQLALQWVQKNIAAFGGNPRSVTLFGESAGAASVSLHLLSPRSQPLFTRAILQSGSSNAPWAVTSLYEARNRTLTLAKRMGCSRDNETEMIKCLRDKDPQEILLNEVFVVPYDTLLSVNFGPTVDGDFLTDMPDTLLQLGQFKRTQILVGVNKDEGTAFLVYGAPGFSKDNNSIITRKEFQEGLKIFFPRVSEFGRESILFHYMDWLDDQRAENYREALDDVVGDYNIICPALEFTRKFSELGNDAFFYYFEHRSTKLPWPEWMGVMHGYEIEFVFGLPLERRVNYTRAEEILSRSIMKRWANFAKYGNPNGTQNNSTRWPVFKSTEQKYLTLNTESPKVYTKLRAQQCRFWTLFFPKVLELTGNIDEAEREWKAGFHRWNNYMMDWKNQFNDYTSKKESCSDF
Procedure: as §1

[3] = system: PC12 cells; experiment: Neuroprotection against H2O2-induced cell death in PC12 cells (MTT); format: cell-based; conditions: H2O2 (150 μM)-induced injury, mean ± SEM
Procedure: The cell viability was measured using MTT [3-(4,5-dimethylthiazol-2-yl)-2,5-diphenyl tetrazolium bromide] assay ([Datki et al., 2003]). PC12 cells (from the Iranian Biological Resource Center, IBRC) received different treatments, including no treatment (control), 150 μM H2O2 alone, or 150 μM H2O2 in combination with 0.1–50 μM of the tested compound. The cells were seeded at 1 × 10^4 cells/well and incubated at 37 °C under a 5% CO2 atmosphere for 24 h, then treated with the tested compound and incubated for 3 h. Next, the cells were exposed to H2O2 for 2 h again. The MTT solution (20 μl, 5 mg/ml) was next replaced with the medium and incubated for 4 h. 100 μl of DMSO was added to dissolve the formazan precipitate. Absorbance was then measured at 570 nm using a multi-mode plate reader (Biotek, Winooski, VT). Cell viability is expressed as a percentage relative to the untreated control.

[4] = target: T3, Aβ1-42 (Homo sapiens, UniProt P05067); experiment: Inhibition of self-induced Aβ1-42 aggregation (ThT assay); format: biochemical; conditions: Aβ1-42 20 μM, compound 100 μM, after 48 h, ThT, mean ± SEM of three experiments
T3 construct: Amyloid-β protein 1–42 (Sigma A9810) was dissolved; purchased Sigma A9810
T3 sequence (P05067 672-713 limits assumed): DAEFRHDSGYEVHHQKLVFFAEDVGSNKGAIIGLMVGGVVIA
Procedure: Inhibitory properties of the compounds on self-induced and AChE-induced aggregation of amyloid-β protein 1–42 was determined using a thioflavin T (ThT)-based fluorescence assay with slight modifications ([Levine, 1993]). The ThT excitation/emission was measured at 448 nm/490 nm at 48 h using a SpectraMax® Microplate Reader. Amyloid-β protein 1–42 (Sigma A9810) was dissolved in Phosphate Buffer Saline pH 7.4 (PBS, HyClone Thermo Scientific) containing ammonium hydroxide (1%). Aβ1-42 (50 μM) was incubated for 24 h at 37°C for prefibrillation.
To determine AChE-induced Aβ1-42 aggregation, Aβ1-42 (20 μl) ± human recombinant AChE (0.01 u/ml, Sigma C1682) were added to […] of PBS buffer pH 7.4 including 0.15 M NaCl and 20 μM thioflavin T (ThT). The mixture was incubated at 37°C in the absence and presence of the compounds (100 μM) and the fluorescence intensities were determined. Due to the presence of the tested compounds, inhibition of self- or AChE-induced aggregation percent was determined by the following calculation: [100-((IFi/IFo) × 100)] where IFi and IFo are the fluorescence intensities obtained for Aβ ± AChE in the presence and in the absence of inhibitors.

T1 sequence (O42275 24-633): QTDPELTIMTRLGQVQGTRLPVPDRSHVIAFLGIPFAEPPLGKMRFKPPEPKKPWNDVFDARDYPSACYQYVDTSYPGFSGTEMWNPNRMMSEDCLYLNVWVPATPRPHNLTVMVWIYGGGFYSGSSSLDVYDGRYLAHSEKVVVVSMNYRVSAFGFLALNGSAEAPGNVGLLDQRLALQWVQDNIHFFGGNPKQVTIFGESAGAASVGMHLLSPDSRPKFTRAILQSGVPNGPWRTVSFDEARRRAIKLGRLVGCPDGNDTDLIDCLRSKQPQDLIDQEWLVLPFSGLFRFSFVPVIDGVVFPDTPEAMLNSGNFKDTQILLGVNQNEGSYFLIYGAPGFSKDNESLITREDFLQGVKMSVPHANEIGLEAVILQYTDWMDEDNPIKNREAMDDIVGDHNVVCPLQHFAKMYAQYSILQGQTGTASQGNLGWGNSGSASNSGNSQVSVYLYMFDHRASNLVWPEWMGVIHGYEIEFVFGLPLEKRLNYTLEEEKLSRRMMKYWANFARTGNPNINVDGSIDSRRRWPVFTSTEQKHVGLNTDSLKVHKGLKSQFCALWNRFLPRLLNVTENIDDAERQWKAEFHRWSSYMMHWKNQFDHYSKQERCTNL

| SMILES | IC50 [1] | IC50 [2] | PC12 cell viability (% of control) ([3]; 0.1 μM compound) | PC12 cell viability (% of control) ([3]; 1 μM compound) | PC12 cell viability (% of control) ([3]; 5 μM compound) | PC12 cell viability (% of control) ([3]; 10 μM compound) | PC12 cell viability (% of control) ([3]; 20 μM compound) | PC12 cell viability (% of control) ([3]; 50 μM compound) | Inhibition of self-induced Aβ aggregation [4] |
| --- | --- | --- | --- | --- | --- | --- | --- | --- | --- |
| COc1ccc2oc(=O)c(-c3ccc(OCCC[n+]4ccccc4)cc3)cc2c1.[Br-] [Compound 3b, 1-(3-(4-(6-Methoxy-2-oxo-2H-chromen-3-yl)phenoxy)propyl)pyridinium Bromide] | 4 ± 1 nM | 68 ± 6 nM | 31.7 ± 1.4 % of control | 37.6 ± 1.1 % of control | 43.3 ± 0.9 % of control | 45.4 ± 1.3 % of control | 49.6 ± 0.9 % of control | 54.3 ± 1.6 % of control |  |
| COc1ccc2cc(-c3ccc(OCCC[n+]4ccccc4)cc3)c(=O)oc2c1 [Compound 3c, 1-(3-(4-(7-Methoxy-2-oxo-2H-chromen-3-yl)phenoxy)propyl)pyridinium Bromide] | 7 ± 1 nM | 57 ± 10 nM |  |  |  |  |  |  |  |
| COc1cccc2cc(-c3ccc(OCCC[n+]4ccccc4)cc3)c(=O)oc12 [Compound 3d, 1-(3-(4-(8-Methoxy-2-oxo-2H-chromen-3-yl)phenoxy)propyl)pyridinium Bromide] | 81 ± 4 nM | 79 ± 9 nM |  |  |  |  |  |  |  |
| O=c1oc2ccc(Br)cc2cc1-c1ccc(OCCC[n+]2ccccc2)cc1 [Compound 3e, 1-(3-(4-(6-Bromo-2-oxo-2H-chromen-3-yl)phenoxy)propyl)pyridinium Bromide] | 15 ± 3 nM | 33 ± 5 nM |  |  |  |  |  |  |  |
| O=c1oc2ccccc2cc1-c1ccc(OCCCC[n+]2ccccc2)cc1.[Br-] [Compound 3g, 1-(4-(4-(2-Oxo-2H-chromen-3-yl)phenoxy)butyl)pyridinium Bromide] | 7 ± 1 nM | 91 ± 18 nM | 30.2 ± 1.4 % of control | 33.6 ± 1.2 % of control | 36.6 ± 0.9 % of control | 45.8 ± 0.3 % of control | 48.7 ± 0.9 % of control | 49.9 ± 0.9 % of control |  |
| COc1ccc2oc(=O)c(-c3ccc(OCCCC[n+]4ccccc4)cc3)cc2c1 [Compound 3h, 1-(4-(4-(6-Methoxy-2-oxo-2H-chromen-3-yl)phenoxy)butyl)pyridinium Bromide] | 1000 ± 37 nM | 106 ± 8 nM |  |  |  |  |  |  |  |
| COc1ccc2cc(-c3ccc(OCCCC[n+]4ccccc4)cc3)c(=O)oc2c1 [Compound 3i, 1-(4-(4-(7-Methoxy-2-oxo-2H-chromen-3-yl)phenoxy)butyl)pyridinium Bromide] | 144 ± 9 nM | 46 ± 1 nM |  |  |  |  |  |  |  |
| COc1cccc2cc(-c3ccc(OCCCC[n+]4ccccc4)cc3)c(=O)oc12 [Compound 3j, 1-(4-(4-(8-Methoxy-2-oxo-2H-chromen-3-yl)phenoxy)butyl)pyridinium Bromide] | 31 ± 5 nM | 97 ± 19 nM |  |  |  |  |  |  |  |
| O=c1oc2ccc(Br)cc2cc1-c1ccc(OCCCC[n+]2ccccc2)cc1 [Compound 3k, 1-(4-(4-(6-Bromo-2-oxo-2H-chromen-3-yl)phenoxy)butyl)pyridinium Bromide] | 40 ± 5 nM | 92 ± 9 nM |  |  |  |  |  |  |  |
| O=c1oc2ccc([N+](=O)[O-])cc2cc1-c1ccc(OCCCC[n+]2ccccc2)cc1.[Br-] [Compound 3l, 1-(4-(4-(6-Nitro-2-oxo-2H-chromen-3-yl)phenoxy)butyl)pyridinium Bromide] | 3 ± 1 nM | 59 ± 11 nM | 23.7 ± 0.5 % of control | 27.3 ± 1.2 % of control | 33.5 ± 1.2 % of control | 37.8 ± 1.0 % of control | 51.6 ± 1.1 % of control | 55.7 ± 2.0 % of control |  |
| O=c1oc2ccccc2cc1-c1ccc(OCCCCC[n+]2ccccc2)cc1 [Compound 3m, 1-(5-(4-(2-Oxo-2H-chromen-3-yl)phenoxy)pentyl)pyridinium Bromide] | 72 ± 8 nM | 86 ± 10 nM |  |  |  |  |  |  |  |
| COc1cccc2cc(-c3ccc(OCCCCC[n+]4ccccc4)cc3)c(=O)oc12 [Compound 3n, 1-(5-(4-(8-Methoxy-2-oxo-2H-chromen-3-yl)phenoxy)pentyl)pyridinium Bromide] | 15 ± 2 nM | 123 ± 24 nM |  |  |  |  |  |  |  |
| O=c1oc2ccc([N+](=O)[O-])cc2cc1-c1ccc(OCCCCC[n+]2ccccc2)cc1 [Compound 3o, 1-(5-(4-(6-Nitro-2-oxo-2H-chromen-3-yl)phenoxy)pentyl)pyridinium Bromide] | 22 ± 4 nM | 27 ± 2 nM |  |  |  |  |  |  |  |
| O=c1oc2ccc(Br)cc2cc1-c1ccc(OCCCCC[n+]2ccccc2)cc1 [Compound 3p, 1-(5-(4-(6-Bromo-2-oxo-2H-chromen-3-yl)phenoxy)pentyl)pyridinium Bromide] | 3 nM | 49 ± 5 nM |  |  |  |  |  |  |  |
| CCc1ccc(C)[n+](CCCCCOc2ccc(-c3cc4cc(Br)ccc4oc3=O)cc2)c1 [Compound 3q, 1-(5-(4-(6-Bromo-2-oxo-2H-chromen-3-yl)phenoxy)pentyl)-5-ethyl-2-methylpyridin-1-ium Bromide] | 19 ± 1.6 nM | 22 ± 2.3 nM |  |  |  |  |  |  |  |
| CN(C)c1cc[n+](CCCOc2ccc(-c3cc4ccccc4oc3=O)cc2)cc1 [Compound 3s, 4-(Dimethylamino)-1-(3-(4-(2-oxo-2H-chromen-3-yl)phenoxy)propyl)pyridin-1-ium Bromide] | 22 ± 1.9 nM | 34 ± 2.6 nM |  |  |  |  |  |  |  |
| COc1cc2c(cc1OC)C(=O)C(CC1CCN(Cc3ccccc3)CC1)C2 (stereo not drawn) [Donepezil, reference compound] |  |  |  |  |  |  |  |  | 30.8 ± 1.7% |
| O=c1c(O)c(-c2ccc(O)c(O)c2)oc2cc(O)cc(O)c12 [Quercetin, reference compound] |  |  | 37.7 ± 1.2 % of control | 44.2 ± 0.7 % of control | 50.7 ± 0.1 % of control | 55.8 ± 0.3 % of control | 59.6 ± 0.8 % of control | 61.0 ± 0.8 % of control |  |
